Data taken from publication PMC9851200, “Multiparameter phenotypic screening for endogenous TFEB and TFE3 translocation identifies novel chemical series modulating lysosome function” (Autophagy, 2022).

What was measured:
PRKD2 = molecular target: T1, PRKD2 (Homo sapiens, UniProt Q9BZL6); details: cited from earlier work
T1 sequence (Q9BZL6 1-878): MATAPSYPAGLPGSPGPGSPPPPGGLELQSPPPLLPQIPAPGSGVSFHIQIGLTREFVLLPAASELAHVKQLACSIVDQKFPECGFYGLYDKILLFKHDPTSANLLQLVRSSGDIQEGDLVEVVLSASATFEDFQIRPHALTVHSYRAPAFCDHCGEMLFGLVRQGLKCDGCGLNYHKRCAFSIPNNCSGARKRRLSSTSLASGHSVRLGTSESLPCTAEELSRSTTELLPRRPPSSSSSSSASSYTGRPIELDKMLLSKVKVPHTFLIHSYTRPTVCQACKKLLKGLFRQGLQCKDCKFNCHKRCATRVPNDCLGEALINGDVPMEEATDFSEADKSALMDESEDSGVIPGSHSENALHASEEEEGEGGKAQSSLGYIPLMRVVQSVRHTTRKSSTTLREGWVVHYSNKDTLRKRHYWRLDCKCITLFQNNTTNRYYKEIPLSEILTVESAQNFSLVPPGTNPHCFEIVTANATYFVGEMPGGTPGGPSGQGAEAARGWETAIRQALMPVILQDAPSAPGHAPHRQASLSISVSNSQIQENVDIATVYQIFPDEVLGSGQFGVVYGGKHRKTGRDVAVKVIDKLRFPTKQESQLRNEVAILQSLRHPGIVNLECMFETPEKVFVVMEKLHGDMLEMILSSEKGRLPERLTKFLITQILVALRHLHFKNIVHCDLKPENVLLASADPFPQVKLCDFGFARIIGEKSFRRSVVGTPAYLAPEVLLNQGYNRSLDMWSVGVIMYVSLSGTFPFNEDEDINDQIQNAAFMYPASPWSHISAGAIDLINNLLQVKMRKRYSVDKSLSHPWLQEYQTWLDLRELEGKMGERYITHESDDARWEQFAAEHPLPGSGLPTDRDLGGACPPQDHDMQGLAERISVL

TGFBR2 = TGFBR2 (Homo sapiens, UniProt P37173); details: cited from earlier work
SH-SY5Y cells [1] = assay: Nuclear count from microscopy images (cellular growth and toxicity); details: PKIS2 primary screening; also: reference of the scale not given here
SH-SY5Y cells [2] = assay: AK (adenylate kinase) release ToxiLight cytotoxicity assay; details: PKIS2 primary screening; also: reference of the scale not given here
MTOR = MTOR (Homo sapiens, UniProt P42345); details: cited from earlier work
PRKD3 = molecular target: T2, PRKD3 (Homo sapiens, UniProt O94806); details: cited from earlier work
T2 sequence (O94806 1-890): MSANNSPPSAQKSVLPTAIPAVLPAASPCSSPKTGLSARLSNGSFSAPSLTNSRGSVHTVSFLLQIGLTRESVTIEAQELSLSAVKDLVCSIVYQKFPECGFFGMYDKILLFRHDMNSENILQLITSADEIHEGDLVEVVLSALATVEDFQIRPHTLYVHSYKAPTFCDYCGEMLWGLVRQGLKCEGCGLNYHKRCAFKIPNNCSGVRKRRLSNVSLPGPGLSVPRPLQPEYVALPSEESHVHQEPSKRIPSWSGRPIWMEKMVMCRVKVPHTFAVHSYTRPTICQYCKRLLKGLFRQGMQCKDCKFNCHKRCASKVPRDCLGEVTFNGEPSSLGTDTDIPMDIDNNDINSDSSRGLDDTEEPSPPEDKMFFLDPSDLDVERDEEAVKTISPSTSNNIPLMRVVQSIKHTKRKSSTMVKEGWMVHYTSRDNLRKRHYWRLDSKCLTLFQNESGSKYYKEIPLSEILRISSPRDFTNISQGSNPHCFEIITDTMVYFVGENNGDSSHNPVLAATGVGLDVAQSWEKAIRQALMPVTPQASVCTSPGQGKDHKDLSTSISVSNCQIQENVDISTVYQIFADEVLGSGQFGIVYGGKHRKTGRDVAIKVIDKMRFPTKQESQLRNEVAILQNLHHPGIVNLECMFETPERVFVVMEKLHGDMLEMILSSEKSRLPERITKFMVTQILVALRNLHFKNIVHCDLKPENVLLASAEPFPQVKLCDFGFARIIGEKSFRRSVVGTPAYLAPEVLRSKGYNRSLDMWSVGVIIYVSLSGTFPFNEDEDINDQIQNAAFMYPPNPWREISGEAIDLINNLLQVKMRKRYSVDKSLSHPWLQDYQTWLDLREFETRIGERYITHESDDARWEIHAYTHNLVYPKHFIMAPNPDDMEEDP

CSNK1D = CSNK1D (Homo sapiens, UniProt P48730); details: cited from earlier work
CDC42BPB/MRCKB = CDC42BPB/MRCKB (Homo sapiens, UniProt Q9Y5S2); details: cited from earlier work
CDC42BPG/DMPK2 = CDC42BPG/DMPK2 (Homo sapiens, UniProt Q6DT37); details: cited from earlier work
endogenous TFEB = assay: TFEB nuclear translocation, immunocytochemistry high-content imaging; format: cell-based; details: for TFEB %: PKIS2 primary screening; as to TFEB %: test concentration or dose not given here
CIT = CIT (Homo sapiens, UniProt O14578); details: cited from earlier work
JAK1(JH2) = molecular target: T3, JAK1(JH2) (Homo sapiens, UniProt P23458); details: cited from earlier work
T3 construct: JAK1(JH2)
T3 sequence (P23458 583-855 limits assumed): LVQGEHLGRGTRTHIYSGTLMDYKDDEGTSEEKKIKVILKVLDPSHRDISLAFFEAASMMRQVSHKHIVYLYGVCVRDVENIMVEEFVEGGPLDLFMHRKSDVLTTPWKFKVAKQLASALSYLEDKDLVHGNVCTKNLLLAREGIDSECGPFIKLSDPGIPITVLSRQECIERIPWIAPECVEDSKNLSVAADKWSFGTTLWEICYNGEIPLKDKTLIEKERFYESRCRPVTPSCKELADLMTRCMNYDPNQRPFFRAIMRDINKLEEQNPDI

CSNK1D, sequence (P48730 whole entry): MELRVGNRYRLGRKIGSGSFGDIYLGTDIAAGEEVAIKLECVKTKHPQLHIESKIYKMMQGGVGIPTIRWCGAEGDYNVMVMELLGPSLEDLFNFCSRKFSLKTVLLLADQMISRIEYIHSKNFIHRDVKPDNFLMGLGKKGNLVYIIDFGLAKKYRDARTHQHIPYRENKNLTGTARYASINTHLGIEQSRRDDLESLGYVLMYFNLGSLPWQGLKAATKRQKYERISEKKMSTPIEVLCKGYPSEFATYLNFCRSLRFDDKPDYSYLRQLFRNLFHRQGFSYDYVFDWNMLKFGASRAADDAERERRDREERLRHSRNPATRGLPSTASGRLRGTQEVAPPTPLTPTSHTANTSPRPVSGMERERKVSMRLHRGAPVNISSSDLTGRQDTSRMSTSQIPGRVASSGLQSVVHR
CDC42BPB/MRCKB, sequence (Q9Y5S2 whole entry): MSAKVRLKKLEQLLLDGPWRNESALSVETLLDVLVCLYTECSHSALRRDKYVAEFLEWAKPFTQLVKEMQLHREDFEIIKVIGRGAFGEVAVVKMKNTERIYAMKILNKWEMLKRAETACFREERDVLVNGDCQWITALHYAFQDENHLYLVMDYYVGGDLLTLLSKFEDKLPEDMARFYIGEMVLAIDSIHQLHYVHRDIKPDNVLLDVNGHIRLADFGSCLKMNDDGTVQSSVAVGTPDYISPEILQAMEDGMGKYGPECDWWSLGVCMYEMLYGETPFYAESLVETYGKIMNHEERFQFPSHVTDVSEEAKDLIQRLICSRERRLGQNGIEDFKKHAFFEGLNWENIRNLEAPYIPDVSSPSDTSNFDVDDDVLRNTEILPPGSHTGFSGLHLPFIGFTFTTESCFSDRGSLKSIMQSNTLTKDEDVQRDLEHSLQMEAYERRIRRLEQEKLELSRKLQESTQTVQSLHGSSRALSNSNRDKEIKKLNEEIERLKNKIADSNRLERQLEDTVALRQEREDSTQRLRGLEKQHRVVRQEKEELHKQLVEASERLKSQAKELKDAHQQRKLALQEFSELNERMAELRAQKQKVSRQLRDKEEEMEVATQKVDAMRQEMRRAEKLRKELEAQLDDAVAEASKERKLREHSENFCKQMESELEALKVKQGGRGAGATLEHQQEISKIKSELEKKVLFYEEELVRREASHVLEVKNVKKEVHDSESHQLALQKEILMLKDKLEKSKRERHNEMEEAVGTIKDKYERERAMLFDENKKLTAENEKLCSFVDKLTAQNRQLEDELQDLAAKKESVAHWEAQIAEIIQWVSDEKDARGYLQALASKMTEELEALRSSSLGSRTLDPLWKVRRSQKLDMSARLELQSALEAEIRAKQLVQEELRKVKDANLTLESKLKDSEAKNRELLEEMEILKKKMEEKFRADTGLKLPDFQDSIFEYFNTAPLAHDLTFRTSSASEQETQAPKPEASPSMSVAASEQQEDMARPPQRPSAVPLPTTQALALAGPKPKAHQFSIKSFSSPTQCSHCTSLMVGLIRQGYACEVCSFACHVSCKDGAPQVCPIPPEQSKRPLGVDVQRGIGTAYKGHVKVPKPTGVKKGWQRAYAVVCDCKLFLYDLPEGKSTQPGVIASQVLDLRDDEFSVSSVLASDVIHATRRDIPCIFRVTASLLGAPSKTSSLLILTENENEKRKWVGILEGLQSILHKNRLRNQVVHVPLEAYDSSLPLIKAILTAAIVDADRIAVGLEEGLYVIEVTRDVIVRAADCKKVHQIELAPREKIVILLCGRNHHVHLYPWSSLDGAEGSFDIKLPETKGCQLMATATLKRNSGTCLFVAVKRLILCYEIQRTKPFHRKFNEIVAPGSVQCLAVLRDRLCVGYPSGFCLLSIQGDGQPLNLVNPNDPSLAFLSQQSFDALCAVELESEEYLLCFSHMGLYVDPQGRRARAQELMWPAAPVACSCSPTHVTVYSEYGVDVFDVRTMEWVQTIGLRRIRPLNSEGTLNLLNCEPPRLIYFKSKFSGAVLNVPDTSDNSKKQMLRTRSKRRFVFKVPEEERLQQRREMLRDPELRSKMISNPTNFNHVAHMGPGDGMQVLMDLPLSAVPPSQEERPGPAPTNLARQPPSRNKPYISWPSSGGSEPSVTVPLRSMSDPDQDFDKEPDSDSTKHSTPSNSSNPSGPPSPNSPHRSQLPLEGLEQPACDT
CIT, sequence (O14578 whole entry): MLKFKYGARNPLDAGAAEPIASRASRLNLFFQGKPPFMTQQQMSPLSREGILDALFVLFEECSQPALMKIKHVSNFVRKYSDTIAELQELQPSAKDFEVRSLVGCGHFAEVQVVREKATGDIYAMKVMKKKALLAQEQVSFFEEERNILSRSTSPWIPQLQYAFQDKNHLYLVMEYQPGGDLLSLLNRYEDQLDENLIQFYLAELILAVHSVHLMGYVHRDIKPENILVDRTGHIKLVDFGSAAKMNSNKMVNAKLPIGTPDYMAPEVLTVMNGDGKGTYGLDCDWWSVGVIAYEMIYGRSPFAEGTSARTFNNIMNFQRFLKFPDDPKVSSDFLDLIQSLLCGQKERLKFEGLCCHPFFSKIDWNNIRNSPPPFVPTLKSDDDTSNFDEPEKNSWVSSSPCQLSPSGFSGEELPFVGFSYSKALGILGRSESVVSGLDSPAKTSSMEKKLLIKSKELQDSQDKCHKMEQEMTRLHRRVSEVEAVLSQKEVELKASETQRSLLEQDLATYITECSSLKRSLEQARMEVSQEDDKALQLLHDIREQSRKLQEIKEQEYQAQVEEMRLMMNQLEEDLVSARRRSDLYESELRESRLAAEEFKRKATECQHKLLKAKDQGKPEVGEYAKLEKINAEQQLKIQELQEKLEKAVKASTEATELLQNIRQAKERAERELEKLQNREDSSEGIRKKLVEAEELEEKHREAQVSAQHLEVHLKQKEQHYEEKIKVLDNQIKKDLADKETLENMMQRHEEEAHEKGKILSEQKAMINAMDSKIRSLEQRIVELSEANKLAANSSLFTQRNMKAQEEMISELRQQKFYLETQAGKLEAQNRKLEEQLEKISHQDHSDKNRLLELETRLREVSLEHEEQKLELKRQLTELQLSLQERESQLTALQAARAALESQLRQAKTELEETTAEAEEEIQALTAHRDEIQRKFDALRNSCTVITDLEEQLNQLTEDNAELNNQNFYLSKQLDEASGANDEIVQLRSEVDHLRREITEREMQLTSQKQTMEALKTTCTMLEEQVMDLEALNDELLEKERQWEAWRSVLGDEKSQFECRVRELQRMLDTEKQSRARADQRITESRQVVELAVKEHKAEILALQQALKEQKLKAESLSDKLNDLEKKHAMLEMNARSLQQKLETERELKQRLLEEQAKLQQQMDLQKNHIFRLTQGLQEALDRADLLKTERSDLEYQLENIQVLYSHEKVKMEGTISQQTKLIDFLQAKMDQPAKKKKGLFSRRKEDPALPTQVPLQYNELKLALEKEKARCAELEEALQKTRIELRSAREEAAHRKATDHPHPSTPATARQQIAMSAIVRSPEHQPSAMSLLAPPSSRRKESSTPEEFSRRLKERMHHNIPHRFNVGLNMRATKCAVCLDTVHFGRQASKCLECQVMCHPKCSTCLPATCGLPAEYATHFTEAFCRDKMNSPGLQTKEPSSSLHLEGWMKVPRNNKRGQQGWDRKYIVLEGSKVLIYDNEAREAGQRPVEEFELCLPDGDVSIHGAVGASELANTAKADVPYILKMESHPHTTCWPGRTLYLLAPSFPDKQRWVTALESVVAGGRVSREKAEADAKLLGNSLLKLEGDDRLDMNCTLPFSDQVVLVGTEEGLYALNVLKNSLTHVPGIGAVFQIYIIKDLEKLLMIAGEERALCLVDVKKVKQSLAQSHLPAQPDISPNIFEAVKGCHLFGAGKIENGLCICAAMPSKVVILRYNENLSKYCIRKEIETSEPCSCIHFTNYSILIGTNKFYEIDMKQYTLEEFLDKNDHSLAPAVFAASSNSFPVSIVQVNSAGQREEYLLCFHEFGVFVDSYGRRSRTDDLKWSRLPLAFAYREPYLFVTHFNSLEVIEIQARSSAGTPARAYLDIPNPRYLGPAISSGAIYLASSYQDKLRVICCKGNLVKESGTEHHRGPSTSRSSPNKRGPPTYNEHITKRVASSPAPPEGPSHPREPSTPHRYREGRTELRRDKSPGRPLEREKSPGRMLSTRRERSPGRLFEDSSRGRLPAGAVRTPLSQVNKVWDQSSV
TGFBR2, sequence (P37173 23-567): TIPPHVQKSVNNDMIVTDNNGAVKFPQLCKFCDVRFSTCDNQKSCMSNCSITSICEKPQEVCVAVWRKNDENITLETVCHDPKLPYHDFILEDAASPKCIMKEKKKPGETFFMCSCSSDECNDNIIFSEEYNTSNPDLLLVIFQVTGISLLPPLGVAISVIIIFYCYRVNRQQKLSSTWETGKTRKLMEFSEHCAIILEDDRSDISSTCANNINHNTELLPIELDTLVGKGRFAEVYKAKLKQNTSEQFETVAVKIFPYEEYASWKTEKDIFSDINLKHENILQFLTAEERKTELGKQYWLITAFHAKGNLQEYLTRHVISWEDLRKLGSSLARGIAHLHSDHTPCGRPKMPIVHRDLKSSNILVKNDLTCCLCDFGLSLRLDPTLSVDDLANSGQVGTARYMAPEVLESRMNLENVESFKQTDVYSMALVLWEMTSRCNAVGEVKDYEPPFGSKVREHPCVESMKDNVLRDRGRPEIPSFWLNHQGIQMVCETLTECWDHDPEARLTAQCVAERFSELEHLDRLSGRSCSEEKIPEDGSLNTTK

SMILES | KINOMEscan binding PRKD2 (PRKD2) [%] | KINOMEscan binding TGFBR2 (TGFBR2) [%] | Nuclear Count (SH-SY5Y cells [1]) | AK (SH-SY5Y cells [2]) | KINOMEscan binding MTOR (MTOR) [%] | KINOMEscan binding PRKD3 (PRKD3) [%] | KINOMEscan binding CSNK1D (CSNK1D) [%] | KINOMEscan binding CDC42BPB/MRCKB (CDC42BPB/MRCKB) [%] | KINOMEscan binding CDC42BPG/DMPK2 (CDC42BPG/DMPK2) [%] | TFEB % (endogenous TFEB) [%] | KINOMEscan binding CIT (CIT) [%] | KINOMEscan binding JAK1(JH2) (JAK1(JH2)) [%] | TFEB translocation (in words) (endogenous TFEB; SH-SY5Y, 24 h treatment)
Cc1cccc(-c2nc(Nc3ccncc3)c3sccc3n2)n1 [GW869641] | 99.6 | 95.6 | 70.17 | 80.75 | 75 | 90.7 | 90 | 98.5 | 98.5 | 20.32 | 96.6 | 90.2 | 
COc1ccc2nc(-c3cccc(C)n3)nc(Nc3ccncc3)c2c1 [GSK204919] | 98.8 | 10 | 98.76 | 106.43 | 43 | 100 | 49 | 94.1 | 91.1 | 4.22 | 73 | 80 | did not show TFEB and TFE3 activation
Cc1ccc(-c2nc(Nc3ccncc3)c3ccccc3n2)s1 [GSK189015] | 14 | 21 | 75.74 | 70.77 | 10 | 22 | 33 | 21 | 13 | 4.14 | 42 | 38 | 
